In patent publication US20080317723A1, “LYMPHATIC ENDOTHELIAL CELLS MATERIALS AND METHODS” (VEGENICS LIMITED, priority 2001, published 2008):

Biological target: T1, VEGFR-1/EpoR (Homo sapiens, UniProt P17948)
T1 construct: a chimeric receptor containing the extracellular domain of human VEGFR-1, VEGFR-2 or VEGFR-3 fused with the transmembrane and cytoplasmic domains; expressed in transfected cells
Test: Ba/F3 bioassay, viability (MTT) of VEGFR-1/EpoR cells
Format: cell-based
Settings: FIG. 1A
Protocol: FIG. 1A-FIG. 1C. Analysis of the receptor-specificities of different VEGFs using the Ba/F3 bioassay. Measurement of the viability of Ba/F3 cells expressing the chimeric receptors VEGFR-1/EpoR (FIG. 1A), VEGFR-2/EpoR (FIG. 1B) or VEGFR-3/EpoR (FIG. 1C) in the presence of different VEGFs at indicated concentrations. Cell viability was determined using the MTT assay. Data represent the mean values from triplicate assays (mean±s.d.). FIG. 1D-FIG. 1G. Biosensor analysis of the interaction of VEGF-C (FIG. 1D, FIG. 1E) and VEGF-C156S (FIG. 1F, FIG. 1G) with VEGFR-3 (FIG. 1D, FIG. 1F) and VEGFR-2 (FIG. 1E, FIG. 1G). Chimeric receptor proteins were immobilized onto a carboxymethylated dextran surface. Growth factors were injected over the surface at a flow rate of 20 μl/min at the indicated concentrations. The sensorgrams shown have been subtracted with the corresponding signal obtained when the same sample was passed over a blank control channel.
Bioassay for VEGFR stimulation. […]
VEGF is an endothelial cell mitogen which has been also shown to protect endothelial cells from starvation and TNF-a induced apoptosis via activation of VEGFR-2 (Gerber et al, J. Biol. Chem., 273:30336-30343, 1998; Spyridopoulos et al., J. Mol. Cell. Cardiol., 29:1321-1330, 1997). […] The specificities of the growth factors used were determined using a cell survival bioassay. […]

T1 sequence (P17948 27-758 limits assumed): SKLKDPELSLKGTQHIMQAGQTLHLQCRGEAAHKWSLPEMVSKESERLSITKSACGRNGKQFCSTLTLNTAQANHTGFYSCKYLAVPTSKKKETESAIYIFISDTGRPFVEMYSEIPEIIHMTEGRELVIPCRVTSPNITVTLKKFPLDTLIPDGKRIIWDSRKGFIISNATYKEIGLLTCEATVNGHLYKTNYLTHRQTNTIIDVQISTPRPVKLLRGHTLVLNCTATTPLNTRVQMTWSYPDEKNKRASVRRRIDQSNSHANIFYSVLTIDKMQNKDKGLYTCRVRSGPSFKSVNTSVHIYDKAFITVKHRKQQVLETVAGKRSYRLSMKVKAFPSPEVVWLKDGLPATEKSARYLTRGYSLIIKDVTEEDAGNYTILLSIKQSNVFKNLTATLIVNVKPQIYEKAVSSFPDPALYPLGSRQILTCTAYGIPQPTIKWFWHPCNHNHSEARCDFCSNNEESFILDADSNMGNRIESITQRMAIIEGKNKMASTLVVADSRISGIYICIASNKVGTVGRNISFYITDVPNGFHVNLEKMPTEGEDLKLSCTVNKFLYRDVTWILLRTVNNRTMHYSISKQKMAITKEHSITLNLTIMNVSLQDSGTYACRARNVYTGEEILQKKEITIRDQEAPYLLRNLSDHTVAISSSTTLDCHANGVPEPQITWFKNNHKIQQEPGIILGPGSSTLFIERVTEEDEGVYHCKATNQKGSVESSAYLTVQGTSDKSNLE

## VEGF
  survival of VEGFR-1/EpoR cells: able to induce the survival of VEGFR-1/EpoR cells
